# Laboratory results reported in patent publication US20080071331A1, “Photodynamic Therapy For The Treatment Of Prostatic Conditions” (QLT Inc., priority 2004, published 2008).
# System: prostate
# Experiment: Photodynamic therapy of the dog prostate after direct intraprostatic injection of lemuteporfin and transurethral 690 nm light
# Type: in vivo
# Conditions: mature intact mixed-breed dogs
# Method: Eight mature, intact, mixed-breed dogs are premedicated with butorphanol (0.4 mg per kilogram of body weight), acepromazine (0.1 mg/kg), and atropine (0.4 mg/kg), all given by intramuscular injection. Anesthesia is induced with intravenous thiopental sodium (8 mg per 0.4536 kilograms of body weight) and maintained with inhaled isoflurane and oxygen (dosage as required for anesthetic effect). Lemuteporfin for injection (A-EA6 in U.S. Pat. No. 5,929,105) is reconstituted with Water for Injection to give a stock concentration of 2.0 mg/ml and diluted with 5% Dextrose in water to a concentration 0.2 mg/ml. A standard cystoscope is inserted into the urethra. Injections of the drug are then delivered to the prostate using a commercially available transurethral injection device (InjecTx™, San Jose, Calif., USA) which is compatible with the cystoscope. Two injections of 0.5 ml are given to each left lobe of the prostate and 2 injections of 1.0 ml are given to each right lobe of the prostate. The transurethral injection device is then removed and a guidewire is inserted through the working channel of the cystoscope. The activation-energy delivery device comprises: a cylindrical fibre optic with a 200 μm diameter core, a 25 mm long diffuser, and a power rating of 175 mW/cm (maximum power load, 437.5 mW); a reflective-cap fibre-centering balloon catheter with a 20 mm treatment window supplied with a guidewire for positioning the device in the urethra; and a 3 W 690 nm red-light diode laser (AOC, South Plainfield, N.J., USA). The catheter is inserted and positioned using the guidewire which is fed through an internal channel of the catheter. Once the catheter is in position the balloon is inflated to secure it in place. The guidewire is removed from the catheter and the fiber optic diffuser is inserted into the catheter and secured in place. The treatment assembly is positioned in the urethra using ultrasonic guidance. Ultrasound is also used to position the needles for four percutaneous intraprostatic injections (two per lobe separated by longitudinally by 1 cm). […]
# [1] = 0.2 mg/ml intraprostatic injections, 690 nm light 25, 50 or 100 J/cm^2, after seven days
compound,measurement,setting,value
"C=Cc1c(C)c2cc3nc(cc4[nH]c(cc5nc(cc1[nH]2)C(C)=C5CCC(=O)OCCO)c(CCC(=O)OCCO)c4C)[C@@]1(C)C3=CC=C(C(=O)OC)[C@H]1C(=O)OC [Lemuteporfin, lemuteporfin]","Bowel, bladder, and prostate sizes",[1],within normal ranges
same,PDT-associated damage in the urethra,[1],no significant PDT-associated damage
same,PDT-associated tissue damage in the target tissue (prostates),"0.2 mg/ml, 2 x 0.5 ml left lobe, 2 x 1.0 ml right lobe, 690 nm light 25, 50 or 100 J/cm^2 15 minutes after last injection, prostates harvested after seven days",evidence of PDT-associated tissue damage in the target tissue
